Results as given in ChEMBL document CHEMBL1201862, “PubChem BioAssay data set” (2004).
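Step 1: Grow cells in 96-well plates. Step 2: Expose to compound for 48 hours at 5 concentrations. Step 3: Interpolate endpoints linearly; if unreached, use highest concentration. GI50 is the concentration that inhibits growth by half.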 Activity calls are given as the source filed them. Rule as the data show it: active = GI50 up to about 1.1 µM and inactive = higher.

What was measured:
Experiment in all cases: NCI-60 cell line screen, 48 h
HCT-15 = tested on: HCT-15
786-0 = tested on: 786-0
CCRF-CEM = tested on: CCRF-CEM
NCI-H522 = tested on: NCI-H522
MDA-MB-435 = tested on: MDA-MB-435
SF-268 = tested on: SF-268
SK-MEL-28 = tested on: SK-MEL-28
IGROV-1 = tested on: IGROV-1
A498 = tested on: A498
BT-549 = tested on: BT-549
MCF7 = tested on: MCF7
OVCAR-3 = tested on: OVCAR-3
RPMI-8226 = tested on: RPMI-8226
SF-539 = tested on: SF-539
SW-620 = tested on: SW-620
HL-60 = tested on: HL-60
TK-10 = tested on: TK-10
UACC-62 = tested on: UACC-62
NCI-H23 = tested on: NCI-H23
OVCAR-5 = tested on: OVCAR-5
CAKI-1 = tested on: CAKI-1
KM12 = tested on: KM12
SNB-75 = tested on: SNB-75
UO-31 = tested on: UO-31
Hs-578T = tested on: Hs-578T
SK-OV-3 = tested on: SK-OV-3
ACHN = tested on: ACHN
HOP-92 = tested on: HOP-92
SNB-19 = tested on: SNB-19
NCI/ADR-RES = tested on: NCI/ADR-RES
M14 = tested on: M14
HCC 2998 = tested on: HCC 2998
HCT-116 = tested on: HCT-116
Malme-3M = tested on: Malme-3M
OVCAR-8 = tested on: OVCAR-8
EKVX = tested on: EKVX
UACC-257 = tested on: UACC-257
MDA-MB-231 = tested on: MDA-MB-231
OVCAR-4 = tested on: OVCAR-4
PC-3 = tested on: PC-3
SK-MEL-2 = tested on: SK-MEL-2
A549 = tested on: A549
MDA-N = tested on: MDA-N
SR = tested on: SR
SK-MEL-5 = tested on: SK-MEL-5
COLO 205 = tested on: COLO 205
NCI-H226 = tested on: NCI-H226
DU-145 = tested on: DU-145
U-251 = tested on: U-251
HT-29 = tested on: HT-29
LOX IMVI = tested on: LOX IMVI
MOLT-4 = tested on: MOLT-4
K562 = tested on: K562
SN12C = tested on: SN12C
HOP-62 = tested on: HOP-62
SF-295 = tested on: SF-295
RXF 393 = tested on: RXF 393
NCI-H460 = tested on: NCI-H460

Structure (SMILES): COC(=O)c1ccc(NCc2cc(OC)ccc2OC)cc1
- GI50 (HCT-15): 30.6 µM
- GI50 (786-0): > 100 µM (inactive)
- GI50 (CCRF-CEM): 42.1 µM (inactive)
- GI50 (NCI-H522): 38.4 µM (inactive)
- GI50 (MDA-MB-435): 21.8 µM (inactive)
- GI50 (SF-268): > 100 µM (inactive)
- GI50 (SK-MEL-28): 39.1 µM (inactive)
- GI50 (IGROV-1): > 100 µM (inactive)
- GI50 (A498): 26.2 µM (inactive)
- GI50 (BT-549): 53.8 µM (inactive)
- GI50 (MCF7): 26.7 µM (inactive)
- GI50 (OVCAR-3): 59.2 µM (inactive)
- GI50 (RPMI-8226): 65.8 µM (inactive)
- GI50 (SF-539): 68.5 µM (inactive)
- GI50 (SW-620): 58.2 µM (inactive)
- GI50 (HL-60): 26.3 µM (inactive)
- GI50 (TK-10): 24 µM (inactive)
- GI50 (UACC-62): 44.8 µM (inactive)
- GI50 (NCI-H23): 65 µM (inactive)
- GI50 (OVCAR-5): > 100 µM (inactive)
- GI50 (CAKI-1): 33.7 µM (inactive)
- GI50 (KM12): 31.1 µM (inactive)
- GI50 (SNB-75): 34.2 µM (inactive)
- GI50 (UO-31): 45.6 µM (inactive)
- GI50 (Hs-578T): 92 µM (inactive)
- GI50 (SK-OV-3): 57 µM (inactive)
- GI50 (ACHN): 34.5 µM (inactive)
- GI50 (HOP-92): 42.7 µM (inactive)
- GI50 (SNB-19): > 100 µM (inactive)
- GI50 (NCI/ADR-RES): 30.3 µM (inactive)
- GI50 (M14): 40.6 µM (inactive)
- GI50 (HCC 2998): 67.6 µM (inactive)
- GI50 (HCT-116): 45 µM (inactive)
- GI50 (Malme-3M): 36.1 µM (inactive)
- GI50 (OVCAR-8): > 100 µM (inactive)
- GI50 (EKVX): 80 µM (inactive)
- GI50 (UACC-257): 52.1 µM (inactive)
- GI50 (MDA-MB-231): 46.7 µM (inactive)
- GI50 (OVCAR-4): > 100 µM (inactive)
- GI50 (PC-3): 39 µM (inactive)
- GI50 (SK-MEL-2): 54.6 µM (inactive)
- GI50 (A549): 38.7 µM (inactive)
- GI50 (MDA-N): 20.8 µM (inactive)
- GI50 (SR): 38 µM (inactive)
- GI50 (SK-MEL-5): 31.2 µM (inactive)
- GI50 (COLO 205): 35.6 µM (inactive)
- GI50 (NCI-H226): 69.8 µM (inactive)
- GI50 (DU-145): > 100 µM (inactive)
- GI50 (U-251): 74.3 µM (inactive)
- GI50 (HT-29): 28.8 µM (inactive)
- GI50 (LOX IMVI): 24.3 µM (inactive)
- GI50 (MOLT-4): 33.3 µM (inactive)
- GI50 (K562): 35.6 µM (inactive)

Structure (SMILES): COc1ccc(/C=C2\S/C(=N/Nc3nc(-c4ccccc4)cs3)NC2=O)cc1OC
- GI50 (SN12C): 17.8 µM (inactive)
- GI50 (HCT-15): 21.5 µM
- GI50 (786-0): 28.4 µM (inactive)
- GI50 (CCRF-CEM): 4.1 µM (inactive)
- GI50 (NCI-H522): 18.5 µM (inactive)
- GI50 (MDA-MB-435): 25.7 µM (inactive)
- GI50 (SF-268): 29 µM (inactive)
- GI50 (SK-MEL-28): 32.7 µM (inactive)
- GI50 (IGROV-1): 12.6 µM (inactive)
- GI50 (BT-549): 24.5 µM (inactive)
- GI50 (MCF7): 19.2 µM (inactive)
- GI50 (OVCAR-3): 15.9 µM (inactive)
- GI50 (SF-539): 24.3 µM (inactive)
- GI50 (SW-620): 30.3 µM (inactive)
- GI50 (HL-60): 6 µM (inactive)
- GI50 (TK-10): 20.5 µM (inactive)
- GI50 (UACC-62): 23.6 µM (inactive)
- GI50 (NCI-H23): 19.1 µM (inactive)
- GI50 (OVCAR-5): 23.4 µM (inactive)
- GI50 (CAKI-1): 31.8 µM (inactive)
- GI50 (KM12): 24.5 µM (inactive)
- GI50 (SNB-75): 22.8 µM (inactive)
- GI50 (UO-31): 15.6 µM (inactive)
- GI50 (Hs-578T): 24.6 µM (inactive)
- GI50 (HOP-62): 22.1 µM (inactive)
- GI50 (SK-OV-3): 21.5 µM (inactive)
- GI50 (ACHN): 24.7 µM (inactive)
- GI50 (HOP-92): 12.6 µM (inactive)
- GI50 (SNB-19): 25.6 µM (inactive)
- GI50 (NCI/ADR-RES): 20.7 µM (inactive)
- GI50 (M14): 32.4 µM (inactive)
- GI50 (HCC 2998): 22.4 µM (inactive)
- GI50 (HCT-116): 17.1 µM (inactive)
- GI50 (OVCAR-8): 21 µM (inactive)
- GI50 (SF-295): 25.3 µM (inactive)
- GI50 (EKVX): 22.6 µM (inactive)
- GI50 (UACC-257): 33.3 µM (inactive)
- GI50 (MDA-MB-231): 21.9 µM (inactive)
- GI50 (OVCAR-4): 27.2 µM (inactive)
- GI50 (PC-3): 17.4 µM (inactive)
- GI50 (SK-MEL-2): 19.1 µM (inactive)
- GI50 (RXF 393): 4.5 µM (inactive)
- GI50 (A549): 20.9 µM (inactive)
- GI50 (MDA-N): 15.4 µM (inactive)
- GI50 (SK-MEL-5): 15.5 µM (inactive)
- GI50 (COLO 205): 35.6 µM (inactive)
- GI50 (DU-145): 34 µM (inactive)
- GI50 (U-251): 26.3 µM (inactive)
- GI50 (NCI-H460): 23 µM (inactive)
- GI50 (LOX IMVI): 23.3 µM (inactive)
- GI50 (MOLT-4): 3.07 µM (inactive)

Structure (SMILES): C=C1C2C[C@@H]3O[C@H]4C[C@H]5O[C@@]6(C[C@@H]7O[C@]8(C[C@H](C)[C@@H]9O[C@@H]%10CC(CO)O[C@@H]%10C[C@@H]9O8)C[C@H](C)[C@@H]7O6)C[C@H]5O[C@H]4[C@H](C)[C@H]3OC(=O)C[C@H]3CC[C@@H]4OC5[C@H]6O[C@]7(CC[C@H]8CC(=C)[C@H](CC[C@@H](C[C@H]1C)O2)O8)CC6O[C@@H]5[C@@H](O7)[C@H]4O3 (stereo partly drawn)
- GI50 (SN12C): < 0.0001 µM (active)
- GI50 (HCT-15): < 0.0001 µM
- GI50 (786-0): < 0.0001 µM (active)
- GI50 (CCRF-CEM): < 0.0001 µM (active)
- GI50 (NCI-H522): < 0.0001 µM (active)
- GI50 (MDA-MB-435): < 0.0001 µM (active)
- GI50 (SF-268): < 0.0001 µM (active)
- GI50 (IGROV-1): < 0.0001 µM (active)
- GI50 (A498): 0.000502 µM (active)
- GI50 (BT-549): < 0.0001 µM (active)
- GI50 (MCF7): < 0.0001 µM (active)
- GI50 (OVCAR-3): < 0.0001 µM (active)
- GI50 (RPMI-8226): < 0.0001 µM (active)
- GI50 (SW-620): < 0.0001 µM (active)
- GI50 (TK-10): < 0.0001 µM (active)
- GI50 (UACC-62): < 0.0001 µM (active)
- GI50 (NCI-H23): < 0.0001 µM (active)
- GI50 (OVCAR-5): < 0.0001 µM (active)
- GI50 (CAKI-1): < 0.0001 µM (active)
- GI50 (KM12): < 0.0001 µM (active)
- GI50 (SNB-75): < 0.0001 µM (active)
- GI50 (UO-31): < 0.0001 µM (active)
- GI50 (Hs-578T): < 0.0001 µM (active)
- GI50 (HOP-62): < 0.0001 µM (active)
- GI50 (SK-OV-3): < 0.0001 µM (active)
- GI50 (ACHN): < 0.0001 µM (active)
- GI50 (HOP-92): < 0.0001 µM (active)
- GI50 (SNB-19): < 0.0001 µM (active)
- GI50 (NCI/ADR-RES): < 0.0001 µM (active)
- GI50 (M14): < 0.0001 µM (active)
- GI50 (HCC 2998): < 0.0001 µM (active)
- GI50 (HCT-116): < 0.0001 µM (active)
- GI50 (Malme-3M): < 0.0001 µM (active)
- GI50 (OVCAR-8): < 0.0001 µM (active)
- GI50 (SF-295): < 0.0001 µM (active)
- GI50 (EKVX): < 0.0001 µM (active)
- GI50 (UACC-257): < 0.0001 µM (active)
- GI50 (MDA-MB-231): < 0.0001 µM (active)
- GI50 (OVCAR-4): > 0.635 µM (active)
- GI50 (PC-3): < 0.0001 µM (active)
- GI50 (SK-MEL-2): < 0.0001 µM (active)
- GI50 (RXF 393): < 0.0001 µM (active)
- GI50 (A549): < 0.0001 µM (active)
- GI50 (MDA-N): < 0.0001 µM (active)
- GI50 (SR): < 0.0001 µM (active)
- GI50 (SK-MEL-5): < 0.0001 µM (active)
- GI50 (COLO 205): < 0.0001 µM (active)
- GI50 (NCI-H226): < 0.0001 µM (active)
- GI50 (DU-145): < 0.0001 µM (active)
- GI50 (U-251): < 0.0001 µM (active)
- GI50 (NCI-H460): < 0.0001 µM (active)
- GI50 (LOX IMVI): < 0.0001 µM (active)
- GI50 (MOLT-4): < 0.0001 µM (active)
- GI50 (K562): < 0.0001 µM (active)
